# Source: US6319702A, “Nucleic acids encoding mutant human carboxypeptidase A enzymes” (Glaxo Wellcome, Inc., priority 1993, dated 2001)
# Key:
# [1] = in vivo; details: mouse, iv
# [2] = target: T1, wild type human carboxypeptidase A1 (Homo sapiens, UniProt P15085); test: Enzyme kinetics of prodrugs with wild type human carboxypeptidase A1 (coupled assay); type: biochemical; details: Human CPA1; rate too slow to assay
# T1 sequence (P15085 111-419): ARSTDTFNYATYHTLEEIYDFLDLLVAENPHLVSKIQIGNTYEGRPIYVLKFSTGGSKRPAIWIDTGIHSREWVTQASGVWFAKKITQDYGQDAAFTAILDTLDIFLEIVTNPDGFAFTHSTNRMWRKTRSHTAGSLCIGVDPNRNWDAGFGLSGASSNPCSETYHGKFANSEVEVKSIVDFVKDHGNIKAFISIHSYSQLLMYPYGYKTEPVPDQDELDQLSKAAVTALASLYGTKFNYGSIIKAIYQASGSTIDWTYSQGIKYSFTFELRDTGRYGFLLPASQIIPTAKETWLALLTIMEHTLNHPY
# Source text: (§1) As indicated herein, the in vivo stable prodrug of the present invention should be a better substrate for a mutant enzyme than the corresponding wild type enzyme in order for the stable prodrug to be activated selectively at the tumour. […] The most relevant kinetic constant in the table is the kcat/Km, which provides an estimate of the second order rate constant for the enzyme catalyzed conversion of prodrug to methotrexate. Thus, the larger the kcat/Km, the more efficient the enzyme with a particular substrate. […] Thus, the single mutation at 268 from thr to gly converted very poor substrates in the wild type enzyme to excellent substrates in the mutant enzyme. […] Thus, the compounds are much better substrates for the mutant enzyme than the wild type enzyme which permits very specific tumor targeted activation of the nontoxic, stable prodrug to the active agent.
# (§2) Kinetics were determined by a modification of the coupled assay of Kuefner, et al (1989) Biochemistry 28 2288-2297 in which the product MTX is converted by excess carboxypeptidase G to the pteroate of MTX. In this assay the reaction is followed spectrophotometrically at 315 nm; at this wavelength the change in molar absorbtivity for the coupled reaction was determined to be 9.57 mM^-1 cm^-1. Assays were performed at 25° C. in 25 mM tris-HCl, 100 mM NaCl, pH 7.4. Prodrugs were preincubated at 25° C. with buffer and 17 milliunits of Sigma #C-9658 carboxypeptidase G in 1 ml total volume. Assay was initiated with carboxypeptidase A or the appropriate mutant. Initial velocities were obtained, and standard Michaelis-Menten calculations were used to determine kinetic constants (in Biochemistry, Lehninger, A. L. 1970, Worth Publishers, Inc, NY).
# [3] = test system: 268gly; test: Enzyme kinetics of prodrugs with 268gly mutant of human CPA1 (coupled assay); type: biochemical; details: 268gly; 25° C., pH 7.4
# Source text: as §1, §2
# [4] = test system: 268ala; test: Enzyme kinetics of prodrugs with 268ala mutant of human CPA1 (coupled assay); type: biochemical; details: 25° C., pH 7.4
# Source text: as §1, §2
smiles,measurement,setting,value
CN(Cc1cnc2nc(N)nc(N)c2n1)c1ccc(C(=O)N[C@@H](CCC(=O)O)C(=O)N[C@@H](Cc2cccc(C3CCCC3)c2)C(=O)O)cc1,MTD,[1],> 40 mg/kg
same,NOAEL,[1],≥ 40 mg/kg
same,kcat (symbol ND),[2],ND (not determined; rate to slow assay. kcat ≤ 0.0005/sec.)
same,Km,[3],15 µM
same,kcat,[3],1.4 s⁻¹
same,Km,[4],31 µM
same,kcat,[4],0.001 s⁻¹
